# From patent EP1093379B1, “USE OF INHIBITORS OF PROTEIN KINASE C EPSILON TO TREAT PAIN” (The Regents of the University of California, priority 1998, dated 2007)
# Like-named read-outs stand apart in the source and are kept apart here.
# Legend:
# TTX-RINa = format: cell-based, rat; conditions: for effect on epinephrine-induced potentiation of TTX-RINa: 2µM propranolol, 5µM phentolamine, 100µM Rp-cAMPs, 100µM BIM
# [1] = test system: isoproterenol-induced hyperalgesia; assay: Isoproterenol-induced mechanical hyperalgesia, paw-withdrawal threshold; format: in vivo, rat; conditions: for effect on isoproterenol-induced hyperalgesia: intradermal, BIM 1 µg, WIPTIDE 100 ng, propranolol dose not given
# Protocol: To examine the role of β-AR in epinephrine-induced hyperalgesia, propranolol, a β-AR antagonist, and isoproterenol, a selective β-AR agonist, were administered by intradermal injection.
# (§1) The roles of PKC, protein kinase A ("PKA") and the µ-opioid receptor in mediating epinephrine-induced hyperalgesia were assessed by measuring the effects of: Rp-adenosine 3', 5'-cyclic monophosphate ("Rp-cAMPs") and WIPTIDE, both inhibitors of PKA; SQ22536, an inhibitor of adenylyl cyclase, an enzyme activated by PKA; bisindolymaleimide ("BIM"), a nonselective inhibitor of PKC isozymes; and [D-Ala^2,N-Me-Phe^4,Gly^5-ol]-enkephalin ("DAMGO"), p-opioid receptor agonist. The dose for each inhibitor was 1µg, except for WIPTIDE, which was administered in a 100ng dose. […] A large numeric value means more hyperalgesia.
# [2] = test system: epinephrine-induced hyperalgesia; assay: Epinephrine-induced mechanical hyperalgesia, paw-withdrawal threshold (Ugo Basile analgesymeter); format: in vivo, rat; conditions: for effect on epinephrine-induced hyperalgesia: intradermal, rat hindpaw, inhibitors 1 µg (WIPTIDE 100 ng) 15 minutes prior to epinephrine, DAMGO co-injected, antagonist doses not given; for Percentage decrease in nociceptive threshold in response to epinephrine: epinephrine 100 ng alone or with DAMGO, SQ22536, BIM, Rp-cAMPs (all 1 µg) or WIPTIDE (0.1 µg), large value = more hyperalgesia
# Protocol: as §1
# [3] = test system: PGE2-induced hyperalgesia; assay: PGE2-induced mechanical hyperalgesia, paw-withdrawal threshold; format: in vivo, rat
# Protocol: The roles of PKC, protein kinase A ("PKA") and the µ-opioid receptor in mediating epinephrine-induced hyperalgesia were assessed by measuring the effects of: Rp-adenosine 3', 5'-cyclic monophosphate ("Rp-cAMPs") and WIPTIDE, both inhibitors of PKA; SQ22536, an inhibitor of adenylyl cyclase, an enzyme activated by PKA; bisindolymaleimide ("BIM"), a nonselective inhibitor of PKC isozymes; and [D-Ala^2,N-Me-Phe^4,Gly^5-ol]-enkephalin ("DAMGO"), p-opioid receptor agonist. The dose for each inhibitor was 1µg, except for WIPTIDE, which was administered in a 100ng dose. DAMGO was co-injected with epinephrine whereas the other inhibitors were applied 15 minutes prior to epinephrine injection. […] TABLE 1: Percentage decrease in nociceptive threshold in response to epinephrine, PGE2 or isoproterenol (each 100 ng) and effects of DAMGO, SQ22536, BIM, Rp-cAMPs (all 1 µg) or WIPTIDE (0.1 µg). A large numeric value means more hyperalgesia.
# For mechanical nociceptive testing, the nociceptive flexion reflex was quantified using an Ugo Basile analgesymeter that applies a constantly increasing force measured in grams (Stoelting, Chicago, IL; K. O. Aley, J. D. Levine, J. Neurosci. 17, 8018-23 (1997)). The mean basal mechanical threshold for rats used in these experiments was 105.3+/-2.8 grams. The effects of hyperalgesia-inducing agents epinephrine (100ng) and PGE2 (100ng) on mechanical nociceptive thresholds were determined by measuring paw withdrawal frequencies at 15, 20, and 25 minutes after administration of the hyperalgesic agent and then calculating the mean of these three readings.
# [4] = test system: prolonged PGE2-induced hyperalgesia; assay: Chronic inflammatory pain model: prolonged hyperalgesia in carrageenan-sensitized rats (Randall-Selitto paw-withdrawal test); format: in vivo; conditions: for duration of hyperalgesia in untreated rats: rats that have not received carrageenan injections; for duration of hyperalgesia in carrageenan-sensitized rats: seen up to three weeks after the carrageenan injection
# From the text: In order to investigate the role, if any, of PKCε in chronic inflammatory pain, the following model system for chronic inflammatory pain was developed. Rats received intradermal hind paw injections of carrageenan, an inflammatory agent. […] This was considered an acute response to the carrageenan-induced inflammation. Although administration of Prostaglandin E2 ("PGE2"), 5-hydroxytryptamine ("5-HT," serotonin) or CGS-21680 (an adenosine A2-selective receptor agonist) normally causes untreated rats (that is, rats that have not received carrageenan injections) to experience hyperalgesia lasting up to 6 hours, the hyperalgesia experienced by carrageenan-sensitized rats following administration of any one of these substances lasted up to 24 hours.
# The prolonged PGE2-induced hyperalgesia normally seen in carrageenan-sensitized rats was inhibited by administration of BIM or εV1-2.
# To examine whether protein kinase C modulates the processes by which a brief inflammatory event causes prolonged hyperalgesia many days later, rats received carrageenan and 1µg BIM injections at the same time. Hyperalgesia was measured 72 hours later, when the rats were treated PGE2. […] Therefore, administration of an inhibitor of PKC either at approximately the same time as the inflammatory agent giving rise to chronic, prolonged hyperalgesia or at about the same time as the hyperalgesia-inducing stimulus can lessen such chronic hyperalgesia.
# [5] = test system: PGE2-induced hyperalgesia; conditions: cited from earlier work; for Percentage decrease in nociceptive threshold in response to PGE2: PGE2 100 ng alone or with DAMGO, SQ22536, Rp-cAMPs (1 µg), data from Khasar 1995 / Taiwo and Levine 1991
# [6] = test system: mechanical nociceptive threshold; assay: von Frey hair paw-withdrawal frequency in wild-type mice; format: in vivo; conditions: 100ng by intraplantar injection prior to VFH stimulation (4, 6.9 or 14.8 grams)
# Protocol: Mechanical, thermal and chemical nociception were evaluated in wild-type and PKCε-mutant mice.
# [7] = test system: PGE2-induced hyperalgesia; conditions: PGE2 100 ng alone or with DAMGO, SQ22536, Rp-cAMPs (1 µg); data from Khasar 1995 / Taiwo and Levine 1991; cited from earlier work
# [8] = test system: epinephrine-induced hyperalgesia; assay: Epinephrine-induced mechanical hyperalgesia, paw-withdrawal threshold (Ugo Basile analgesymeter); format: in vivo, rat
# [9] = Rotorod analysis of motor deficits; format: in vivo, rat; conditions: vincristine 100 µg/kg intravenously daily
# Protocol: (§2) Humans undergoing chemotherapy frequently experience hyperalgesia. Vincristine is a chemotherapeutic drug known to cause such hyperalgesia, and a rat model of vincristine-induced hyperalgesia was established as follows. Vincristine (100 µg/kg in saline; Sigma Chemical Catalog) was administered intravenously daily to each of 32 rats over a period of two weeks.
# [10] = test system: vincristine-induced hyperalgesia; assay: Vincristine-induced hyperalgesia model, mechanical stimuli (Ugo Basile analgesymeter); format: in vivo, rat; conditions: vincristine 100 µg/kg intravenously daily; after the second day
# Protocol: as §2
# To determine whether administration of an inhibitor of PKCε would lessen vincristine-induced hyperalgesia in the rat model described above, on the 13th day of vincristine treatment, rats received no treatment (n= 16) or intradermal injections of sterile water followed by intradermal injections of either 1µg εV1-2, a PKCε inhibitory peptide (n=8; labeled "PKCεI" on Figure 12A), or 1µg S-VεV1-2, a scrambled version of the εV1-2 peptide (n=8; labeled "PCKεI SCR" on Figure 12A), 20-30 minutes before administration of a mechanical stimulus.
# [11] = test system: small diameter DRG neurons
# [12] = test system: formalin-induced hyperalgesia; conditions: similar dose of phentolamine; earlier studies; cited from earlier work
# basal paw threshold = conditions: similar dose of phentolamine, normal rat; earlier studies; cited from earlier work
# [13] = 1µM epinephrine with 100µM BIM v. epinephrine alone
# [14] = after 1µg epinephrine injection
molecule,measurement,setting,value
CC(C)NCC(O)COc1cccc2ccccc12 (centres unmarked) [propranolol],effect on epinephrine-induced potentiation of TTX-RINa,TTX-RINa; 1µM epinephrine,eliminated this potentiation
same,effect on isoproterenol-induced hyperalgesia,[1],significantly attenuated
same,effect on epinephrine-induced hyperalgesia,[2],significantly attenuated
WIPTIDE,Percentage decrease in nociceptive threshold in response to PGE2,[3]; PGE2 100 ng with BIM (1 µg) or WIPTIDE (0.1 µg),9.4 ± 3.1 %
same,effect on PGE2-induced hyperalgesia,"[3]; same dose as for epinephrine: BIM 1 µg, WIPTIDE 100 ng",significantly attenuated
same,effect on isoproterenol-induced hyperalgesia,[1],almost completely abolished
same,Percentage decrease in nociceptive threshold in response to isoproterenol,[1]; isoproterenol 100 ng alone or with BIM (1 µg) or WIPTIDE (0.1 µg),1 ± 2.8 %
same,Percentage decrease in nociceptive threshold in response to epinephrine,[2],10.9 ± 3.6 %
CCNC(=O)[C@H]1O[C@@H](n2cnc3c(N)nc(NCCc4ccc(CCC(=O)O)cc4)nc32)[C@H](O)[C@@H]1O [CGS-21680],duration of hyperalgesia in untreated rats,[4],up to 6 hours
same,duration of hyperalgesia in carrageenan-sensitized rats,[4],up to 24 hours
"CCCCC[C@H](O)/C=C/[C@H]1[C@H](O)CC(=O)[C@@H]1C/C=C\CCCC(=O)O [PGE2, prostaglandin E2]",Percentage decrease in nociceptive threshold in response to PGE2,[5],33.6±1.9%
same,duration of hyperalgesia in untreated rats,[4],up to 6 hours
same,duration of hyperalgesia in carrageenan-sensitized rats,[4],up to 24 hours
same,percent-withdrawal response to VFH stimulus,[6],dramatically increased
"[D-Ala^2,N-Me-Phe^4,Gly^5-ol]-enkephalin [DAMGO]",Percentage decrease in nociceptive threshold in response to PGE2,[7],11.1 ± 4.0 %
same,Percentage decrease in nociceptive threshold in response to epinephrine,[2],11.5 ± 3.1 %
COc1ccc2c(c1)c(CC(=O)O)c(C)n2C(=O)c1ccc(Cl)cc1 [indomethacin],effect on the ability of epinephrine to induce hyperalgesia,"[8]; continuous treatment with 4mg/kg of indomethacin, n=8",Neither indomethacin treatment nor sympathectomy had any effect
CC[C@]1(O)C[C@H]2CN(CCc3c([nH]c4ccccc34)[C@@](C(=O)OC)(c3cc4c(cc3OC)N(C=O)[C@H]3[C@@](O)(C(=O)OC)[C@H](OC(C)=O)[C@]5(CC)C=CCN6CC[C@]43[C@@H]65)C2)C1 [Vincristine],motor deficits (Rotorod analysis),[9],did not show any significant motor deficits
same,mechanical nociceptive thresholds of vincristine-treated rats,[10],acute dose-dependent decrease in mechanical nociceptive thresholds
CC(C)NCC(O)c1ccc(O)c(O)c1 (centres unmarked) [isoproterenol],hyperalgesia produced in the absence of epinephrine,[1]; intradermal injection of isoproterenol,dose-dependent hyperalgesia
CNC[C@H](O)c1ccc(O)c(O)c1 [epinephrine],mean peak current increase,TTX-RINa; [13],49%
same,number of neurons responsive to epinephrine,TTX-RINa; [13],8 out of 11
same,neurons with an increase in TTX-RINa,"TTX-RINa; 1µM epinephrine, 14 out of 21 neurons",67%
same,shift of current-voltage plots for activation,"TTX-RINa; 1µM epinephrine, hyperpolarized direction",approximately 10 mV
same,effect on TTX-RINa,"TTX-RINa; 1µM epinephrine, isoproterenol application",marked potentiation
same,duration of epinephrine-induced hyperalgesia,[8]; [14],approximately 2 hours
same,onset latency of epinephrine-induced hyperalgesia (significant),[8]; [14],2 min
same,time to peak effect of hyperalgesia,[8]; [14],≤ 5 min
same,Percentage decrease in nociceptive threshold in response to epinephrine,"[8]; epinephrine 100 ng alone or with DAMGO, SQ22536, BIM, Rp-cAMPs (all 1 µg) or WIPTIDE (0.1 µg), large value = more hyperalgesia",29.6±2.1%
same,threshold reduction (mechanical nociceptive threshold),"[8]; epinephrine 100ng only, or sterile water and 1µg scrambled peptide prior to epinephrine, mean of 15, 20, 25 minutes, n=8",25-30%
same,threshold at which the rat withdrew the paw,"[8]; intradermal injections of 1ng to 1µg epinephrine, dorsal surface of hindpaw",dose-dependent decrease
same,mean resting potentials,[11]; 1µM epinephrine,unaffected
same,average number of action potentials generated in response to the current ramp-and-plateau,"[11]; 1µM epinephrine, five minutes or more after start of perfusion, 1.7±0.2 before, 11 neurons",5.3±0.9
same,neurons showing a decrease in spike latency of at least 50ms,"[11]; 1µM epinephrine, 5 of 11 neurons",45%
same,neurons showing an increase in spike number,"[11]; 1µM epinephrine, nine of 11 neurons",81%
same,mean latency from the start of current injection to the peak of the first spike,"[11]; following 1µM epinephrine perfusion, 278±42ms without epinephrine, n=11",189 ± 21 ms
same,percent-withdrawal response to VFH stimulus,[6],dramatically increased
"Rp-adenosine 3', 5'-cyclic monophosphate [Rp-cAMPs]",Percentage decrease in nociceptive threshold in response to PGE2,[5],3.1 ± 5.2 %
same,effect on epinephrine-induced potentiation of TTX-RINa,TTX-RINa; 1µM epinephrine,abolished
same,Percentage decrease in nociceptive threshold in response to epinephrine,[2],13.9 ± 4.6 %
Cc1ccc(N(CC2=NCCN2)c2cccc(O)c2)cc1 [phentolamine],effect on ability of rolipram to prolong PGE2-induced hyperalgesia,"[5]; similar dose of phentolamine, earlier studies",inhibited
same,effect on formalin-induced hyperalgesia,[12],significantly reversed
same,effect on basal paw threshold,basal paw threshold,no effect
same,effect on epinephrine-induced potentiation of TTX-RINa,TTX-RINa; 1µM epinephrine,did not
same,effect on epinephrine-induced hyperalgesia,[2],did not significantly affect
"NCCc1c[nH]c2ccc(O)cc12 [5-HT, 5-hydroxytryptamine]",duration of hyperalgesia in untreated rats,[4],up to 6 hours
same,duration of hyperalgesia in carrageenan-sensitized rats,[4],up to 24 hours
